Results published in ChEMBL document CHEMBL5649169 (ChemMedChem, 2018).

Legend:
Ephrin type-A receptor 7 = Ephrin type-A receptor 7 (Homo sapiens, UniProt Q15375); test: Inhibition of Nano Luc-fused full length C-terminal EPHA7 (unknown origin) expressed in HEK293T cells using NanoGlo as substrate incubated for 2 hrs in presence of tracer by NanoBRET assay; format: cell-based
[1] = target: Serine-protein kinase ATM (Homo sapiens) (UniProt Q13315); further: assay method not described here
[2] = target: BMP-2-inducible protein kinase (Homo sapiens) (UniProt Q9NSY1); further: assay method not described here
[3] = target: T-complex protein 1 subunit gamma (Homo sapiens) (UniProt P49368); further: assay method not described here
[4] = target: T-complex protein 1 subunit zeta (Homo sapiens) (UniProt P40227); further: assay method not described here
[5] = target: Ceroid-lipofuscinosis neuronal protein 6 (Homo sapiens) (UniProt Q9NWW5); further: assay method not described here
[6] = target: Coatomer subunit gamma-2 (Homo sapiens) (UniProt Q9UBF2); further: assay method not described here
[7] = target: Aromatic-L-amino-acid decarboxylase (Homo sapiens) (UniProt P20711); further: assay method not described here
[8] = target: Probable ATP-dependent RNA helicase DDX17 (Homo sapiens) (UniProt Q92841); further: assay method not described here
Probable ATP-dependent RNA helicase DDX17 (Homo sapiens), sequence (Q92841 whole entry): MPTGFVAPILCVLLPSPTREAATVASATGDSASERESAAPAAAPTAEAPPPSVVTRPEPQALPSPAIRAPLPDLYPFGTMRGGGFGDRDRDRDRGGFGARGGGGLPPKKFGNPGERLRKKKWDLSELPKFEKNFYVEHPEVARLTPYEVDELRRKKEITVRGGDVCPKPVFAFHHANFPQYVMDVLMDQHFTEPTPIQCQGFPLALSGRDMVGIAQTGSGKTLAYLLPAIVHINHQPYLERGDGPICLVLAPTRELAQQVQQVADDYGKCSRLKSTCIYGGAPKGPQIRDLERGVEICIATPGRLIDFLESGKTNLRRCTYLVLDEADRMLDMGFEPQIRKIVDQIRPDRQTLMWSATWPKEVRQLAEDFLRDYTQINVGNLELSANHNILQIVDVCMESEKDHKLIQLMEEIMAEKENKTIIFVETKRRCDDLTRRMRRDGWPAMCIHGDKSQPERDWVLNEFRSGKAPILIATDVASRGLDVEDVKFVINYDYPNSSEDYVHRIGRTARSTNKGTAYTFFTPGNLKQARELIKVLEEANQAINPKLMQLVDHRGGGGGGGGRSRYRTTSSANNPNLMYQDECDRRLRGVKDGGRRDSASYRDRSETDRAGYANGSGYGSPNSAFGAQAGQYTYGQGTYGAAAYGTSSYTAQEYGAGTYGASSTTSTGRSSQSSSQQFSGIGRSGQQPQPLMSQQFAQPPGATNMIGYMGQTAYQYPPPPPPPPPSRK

[9] = target: Cytoplasmic dynein 1 light intermediate chain 1 (Homo sapiens) (UniProt Q9Y6G9); further: assay method not described here
[10] = target: Exocyst complex component 1 (Homo sapiens) (UniProt Q9NV70); further: assay method not described here
Exocyst complex component 1 (Homo sapiens), sequence (Q9NV70 whole entry, one chain of several): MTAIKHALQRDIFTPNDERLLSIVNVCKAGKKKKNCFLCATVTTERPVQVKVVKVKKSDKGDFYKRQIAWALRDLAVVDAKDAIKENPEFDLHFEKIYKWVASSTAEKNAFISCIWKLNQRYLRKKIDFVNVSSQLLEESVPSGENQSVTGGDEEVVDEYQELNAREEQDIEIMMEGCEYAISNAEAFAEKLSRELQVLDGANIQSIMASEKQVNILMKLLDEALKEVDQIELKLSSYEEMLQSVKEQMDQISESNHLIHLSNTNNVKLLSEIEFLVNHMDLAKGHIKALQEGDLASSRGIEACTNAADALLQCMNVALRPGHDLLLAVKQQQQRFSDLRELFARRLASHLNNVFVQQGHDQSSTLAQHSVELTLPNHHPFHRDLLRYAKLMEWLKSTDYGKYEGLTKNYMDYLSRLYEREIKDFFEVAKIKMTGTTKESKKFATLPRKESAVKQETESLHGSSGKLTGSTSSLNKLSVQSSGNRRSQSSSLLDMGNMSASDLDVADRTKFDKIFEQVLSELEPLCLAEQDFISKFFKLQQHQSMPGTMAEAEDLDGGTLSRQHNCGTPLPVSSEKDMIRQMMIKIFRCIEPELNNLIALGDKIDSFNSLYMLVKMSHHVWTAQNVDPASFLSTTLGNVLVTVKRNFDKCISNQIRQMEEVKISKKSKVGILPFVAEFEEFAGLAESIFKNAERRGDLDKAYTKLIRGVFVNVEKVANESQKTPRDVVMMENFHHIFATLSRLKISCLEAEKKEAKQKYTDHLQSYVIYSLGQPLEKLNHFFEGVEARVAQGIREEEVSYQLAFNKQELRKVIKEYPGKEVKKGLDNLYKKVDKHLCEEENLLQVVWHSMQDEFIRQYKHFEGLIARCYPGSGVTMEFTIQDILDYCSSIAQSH

[11] = target: Protein FAM83B (Homo sapiens) (UniProt Q5T0W9); further: assay method not described here
[12] = target: Fatty acyl-CoA reductase 1 (Homo sapiens) (UniProt Q8WVX9); further: assay method not described here
[13] = target: Glucose-6-phosphate 1-dehydrogenase (Homo sapiens) (UniProt P11413); further: assay method not described here
Glucose-6-phosphate 1-dehydrogenase (Homo sapiens), sequence (P11413 whole entry): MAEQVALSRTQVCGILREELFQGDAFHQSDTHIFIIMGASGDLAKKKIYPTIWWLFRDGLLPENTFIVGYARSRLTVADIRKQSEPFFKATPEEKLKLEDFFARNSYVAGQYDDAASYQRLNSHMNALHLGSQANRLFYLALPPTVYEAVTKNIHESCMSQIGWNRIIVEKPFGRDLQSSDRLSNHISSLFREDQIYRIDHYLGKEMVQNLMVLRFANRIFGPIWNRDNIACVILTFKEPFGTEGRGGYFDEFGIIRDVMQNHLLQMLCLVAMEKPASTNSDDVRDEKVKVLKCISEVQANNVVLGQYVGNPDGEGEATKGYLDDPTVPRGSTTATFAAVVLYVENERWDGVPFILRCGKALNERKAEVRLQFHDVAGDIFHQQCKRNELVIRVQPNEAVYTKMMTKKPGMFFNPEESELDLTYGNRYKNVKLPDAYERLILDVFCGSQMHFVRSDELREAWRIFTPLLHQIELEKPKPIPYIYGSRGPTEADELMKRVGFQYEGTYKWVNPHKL

[14] = target: Growth hormone-inducible transmembrane protein (Homo sapiens) (UniProt Q9H3K2); further: assay method not described here
[15] = target: Histone deacetylase 2 (Homo sapiens) (UniProt Q92769); further: assay method not described here
[16] = target: Hepatoma-derived growth factor (Homo sapiens) (UniProt P51858); further: assay method not described here
[17] = target: Putative heat shock protein HSP 90-beta 2 (Homo sapiens) (UniProt Q58FF8); further: assay method not described here
Putative heat shock protein HSP 90-beta 2 (Homo sapiens), sequence (Q58FF8 whole entry): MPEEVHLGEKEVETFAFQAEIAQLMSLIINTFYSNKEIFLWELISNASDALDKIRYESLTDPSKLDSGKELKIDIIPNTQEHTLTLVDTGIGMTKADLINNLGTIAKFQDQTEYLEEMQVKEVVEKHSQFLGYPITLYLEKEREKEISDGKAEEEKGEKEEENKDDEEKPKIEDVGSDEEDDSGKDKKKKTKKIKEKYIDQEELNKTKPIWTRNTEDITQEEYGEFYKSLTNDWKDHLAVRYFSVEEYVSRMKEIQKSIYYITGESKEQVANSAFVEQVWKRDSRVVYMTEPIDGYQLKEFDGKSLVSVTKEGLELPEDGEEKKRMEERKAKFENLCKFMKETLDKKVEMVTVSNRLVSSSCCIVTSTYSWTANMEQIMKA

[18] = target: Junction plakoglobin (Homo sapiens) (UniProt P14923); further: assay method not described here
[19] = target: Microtubule-associated protein 1B (Homo sapiens) (UniProt P46821); further: assay method not described here
[20] = target: Mitogen-activated protein kinase kinase kinase 1 (Homo sapiens) (UniProt Q13233); further: assay method not described here
[21] = target: Mitogen-activated protein kinase kinase kinase 6 (Homo sapiens) (UniProt O95382); further: assay method not described here
[22] = target: Membrane-bound acylglycerophosphatidylinositol O-acyltransferase MBOAT7 (Homo sapiens) (UniProt Q96N66); further: assay method not described here
Membrane-bound acylglycerophosphatidylinositol O-acyltransferase MBOAT7 (Homo sapiens), sequence (Q96N66 whole entry): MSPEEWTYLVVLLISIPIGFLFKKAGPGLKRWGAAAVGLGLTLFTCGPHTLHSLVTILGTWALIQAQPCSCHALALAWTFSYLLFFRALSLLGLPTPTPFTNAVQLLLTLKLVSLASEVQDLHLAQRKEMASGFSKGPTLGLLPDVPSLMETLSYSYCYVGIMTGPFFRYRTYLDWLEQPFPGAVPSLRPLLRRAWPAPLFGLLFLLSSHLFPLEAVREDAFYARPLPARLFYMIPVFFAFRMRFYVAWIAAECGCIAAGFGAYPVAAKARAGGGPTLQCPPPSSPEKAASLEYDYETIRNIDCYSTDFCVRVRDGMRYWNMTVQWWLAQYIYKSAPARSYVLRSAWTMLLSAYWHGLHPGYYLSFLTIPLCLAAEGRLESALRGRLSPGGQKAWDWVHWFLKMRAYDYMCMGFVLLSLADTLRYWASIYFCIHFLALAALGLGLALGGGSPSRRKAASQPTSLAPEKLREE

[23] = target: Phosphoprotein associated with glycosphingolipid-enriched microdomains 1 (Homo sapiens) (UniProt Q9NWQ8); further: assay method not described here
Phosphoprotein associated with glycosphingolipid-enriched microdomains 1 (Homo sapiens), sequence (Q9NWQ8 whole entry): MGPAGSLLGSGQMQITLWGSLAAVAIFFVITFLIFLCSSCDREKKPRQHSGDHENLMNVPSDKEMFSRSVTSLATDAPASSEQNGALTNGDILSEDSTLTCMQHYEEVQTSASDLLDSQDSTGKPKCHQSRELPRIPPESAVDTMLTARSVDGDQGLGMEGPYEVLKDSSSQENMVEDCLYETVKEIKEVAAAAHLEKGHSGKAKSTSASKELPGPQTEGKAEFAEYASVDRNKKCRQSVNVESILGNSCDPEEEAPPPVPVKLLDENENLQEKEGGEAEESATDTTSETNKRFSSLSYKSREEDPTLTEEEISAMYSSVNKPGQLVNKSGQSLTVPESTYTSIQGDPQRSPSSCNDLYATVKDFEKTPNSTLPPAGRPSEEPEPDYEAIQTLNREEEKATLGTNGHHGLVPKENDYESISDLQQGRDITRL

[24] = target: Poly(rC)-binding protein 1 (Homo sapiens) (UniProt Q15365); further: assay method not described here
[25] = target: Pyruvate dehydrogenase E1 component subunit alpha, somatic form, mitochondrial (Homo sapiens) (UniProt P08559); further: assay method not described here
[26] = target: Serine/threonine-protein phosphatase 2A 65 kDa regulatory subunit A alpha isoform (Homo sapiens) (UniProt P30153); further: assay method not described here
[27] = target: 26S proteasome non-ATPase regulatory subunit 2 (Homo sapiens) (UniProt Q13200); further: assay method not described here
26S proteasome non-ATPase regulatory subunit 2 (Homo sapiens), sequence (Q13200 whole entry): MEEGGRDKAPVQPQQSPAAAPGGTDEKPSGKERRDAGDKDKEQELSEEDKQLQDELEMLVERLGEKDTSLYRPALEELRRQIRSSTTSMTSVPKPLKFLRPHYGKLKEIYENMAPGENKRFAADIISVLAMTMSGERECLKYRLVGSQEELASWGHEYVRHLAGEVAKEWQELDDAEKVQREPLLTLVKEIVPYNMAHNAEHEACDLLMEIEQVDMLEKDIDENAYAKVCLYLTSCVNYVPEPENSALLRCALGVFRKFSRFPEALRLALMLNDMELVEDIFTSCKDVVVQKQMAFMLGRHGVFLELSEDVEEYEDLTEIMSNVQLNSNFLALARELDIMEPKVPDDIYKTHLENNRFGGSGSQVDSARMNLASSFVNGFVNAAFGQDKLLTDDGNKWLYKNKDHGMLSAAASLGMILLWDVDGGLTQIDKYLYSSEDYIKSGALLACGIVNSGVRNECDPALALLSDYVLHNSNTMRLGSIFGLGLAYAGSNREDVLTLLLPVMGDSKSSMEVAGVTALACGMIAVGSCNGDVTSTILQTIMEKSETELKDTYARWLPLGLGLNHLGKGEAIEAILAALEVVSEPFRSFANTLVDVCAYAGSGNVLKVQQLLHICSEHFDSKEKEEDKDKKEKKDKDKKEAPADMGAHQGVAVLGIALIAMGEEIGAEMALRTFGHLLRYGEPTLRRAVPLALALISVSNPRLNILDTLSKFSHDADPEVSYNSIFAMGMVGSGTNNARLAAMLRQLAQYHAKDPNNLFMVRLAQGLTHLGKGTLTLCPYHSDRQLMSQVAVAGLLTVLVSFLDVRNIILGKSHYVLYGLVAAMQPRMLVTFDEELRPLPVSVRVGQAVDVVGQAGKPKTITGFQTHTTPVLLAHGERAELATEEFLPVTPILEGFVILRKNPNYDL

[28] = target: Polypyrimidine tract-binding protein 1 (Homo sapiens) (UniProt P26599); further: assay method not described here
[29] = target: Protein-tyrosine kinase 2-beta (Homo sapiens) (UniProt Q14289); further: assay method not described here
[30] = target: Transcriptional regulator protein Pur-beta (Homo sapiens) (UniProt Q96QR8); further: assay method not described here
[31] = target: Large ribosomal subunit protein uL16 (Homo sapiens) (UniProt P27635); further: assay method not described here
[32] = target: Small ribosomal subunit protein eS7 (Homo sapiens) (UniProt P62081); further: assay method not described here
[33] = target: RuvB-like 1 (Homo sapiens) (UniProt Q9Y265); further: assay method not described here
[34] = target: Protein transport protein Sec61 subunit beta (Homo sapiens) (UniProt P60468); further: assay method not described here
[35] = target: Small nuclear ribonucleoprotein Sm D2 (Homo sapiens) (UniProt P62316); further: assay method not described here
[36] = target: Serine/threonine-protein kinase STK11 (Homo sapiens) (UniProt Q15831); further: assay method not described here
[37] = target: Dolichyl-diphosphooligosaccharide--protein glycosyltransferase subunit STT3A (Homo sapiens) (UniProt P46977); further: assay method not described here
Dolichyl-diphosphooligosaccharide--protein glycosyltransferase subunit STT3A (Homo sapiens), sequence (P46977 whole entry): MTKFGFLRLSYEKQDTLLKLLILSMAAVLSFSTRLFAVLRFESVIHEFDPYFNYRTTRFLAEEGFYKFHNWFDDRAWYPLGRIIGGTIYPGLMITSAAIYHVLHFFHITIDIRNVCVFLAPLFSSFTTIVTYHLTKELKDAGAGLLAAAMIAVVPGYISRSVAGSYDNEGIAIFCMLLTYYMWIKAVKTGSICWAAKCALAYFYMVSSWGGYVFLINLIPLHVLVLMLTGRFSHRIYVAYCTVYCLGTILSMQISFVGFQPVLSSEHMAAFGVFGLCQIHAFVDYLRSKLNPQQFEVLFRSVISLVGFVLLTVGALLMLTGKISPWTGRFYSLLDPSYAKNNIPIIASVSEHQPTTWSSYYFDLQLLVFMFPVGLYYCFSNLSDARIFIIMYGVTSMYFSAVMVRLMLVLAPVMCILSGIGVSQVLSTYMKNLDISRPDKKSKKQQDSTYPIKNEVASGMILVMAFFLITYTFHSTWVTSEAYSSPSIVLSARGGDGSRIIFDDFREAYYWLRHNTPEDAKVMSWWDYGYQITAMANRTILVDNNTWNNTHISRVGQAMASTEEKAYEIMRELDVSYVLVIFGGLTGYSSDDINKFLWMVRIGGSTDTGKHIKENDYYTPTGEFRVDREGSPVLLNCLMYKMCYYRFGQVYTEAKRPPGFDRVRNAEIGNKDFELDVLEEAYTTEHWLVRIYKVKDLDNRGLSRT

[38] = target: Transgelin-2 (Homo sapiens) (UniProt P37802); further: assay method not described here
[39] = target: Antigen peptide transporter 2 (Homo sapiens) (UniProt Q03519); further: assay method not described here
[40] = target: TAR DNA-binding protein 43 (Homo sapiens) (UniProt Q13148); further: assay method not described here
[41] = target: Transitional endoplasmic reticulum ATPase (Homo sapiens) (UniProt P55072); further: assay method not described here
[42] = target: X-ray repair cross-complementing protein 6 (Homo sapiens) (UniProt P12956); further: assay method not described here
[43] = target: 14-3-3 protein gamma (Homo sapiens) (UniProt P61981); further: assay method not described here
Wherever ED50 is given: assay method not described here.

Cc1ccc(C(=O)Nc2cccc(C(F)(F)F)c2)cc1Nc1nc(-c2cccnc2)nc2c1cnn2C
IC50 (Ephrin type-A receptor 7): > 50 µM | ED50 [1]: 8680 µM | ED50 [2]: 0.0018 µM | ED50 [3]: 0.0644 µM | ED50 [4]: 5.44 µM | ED50 [5]: 12.5 µM | ED50 [6]: 7.49 µM | ED50 [7]: 0.0409 µM | ED50 [8]: 0.126 µM | ED50 [9]: 0.0244 µM | ED50 [10]: 0.0112 µM | ED50 [11]: 1380 µM | ED50 [12]: 4.69 µM | ED50 [13]: 81.4 µM | ED50 [14]: 0.00891 µM | ED50 [15]: 18.9 µM | ED50 [16]: 0.0049 µM | ED50 (Homo sapiens): 6.33 µM | ED50 [17]: 0.0112 µM | ED50 [18]: 23.1 µM | ED50 [19]: 0.0244 µM | ED50 [20]: 6.12 µM | ED50 [21]: 1.26 µM | ED50 [22]: 3.4 µM | ED50 [23]: 16.8 µM | ED50 [24]: 13 µM | ED50 [25]: 0.101 µM | ED50 [26]: 2 µM | ED50 [27]: 3.14 µM | ED50 [28]: 3.12 µM | ED50 [29]: 0.433 µM | ED50 [30]: 0.00796 µM | ED50 [31]: 0.0767 µM | ED50 [32]: 2.24 µM | ED50 [33]: 4.25 µM | ED50 [34]: 11.5 µM | ED50 [35]: 42.7 µM | ED50 [36]: 2.39 µM | ED50 [37]: 1.12 µM | ED50 [38]: 3.15 µM | ED50 [39]: 10.3 µM | ED50 [40]: 0.814 µM | ED50 [41]: 5.07 µM | ED50 [42]: 0.0358 µM | ED50 [43]: 0.00449 µM

Cc1ccc(C(=O)Nc2cccc(C(F)(F)F)c2)cc1Nc1nc(-c2cccnc2)nc2nn(C)cc12
IC50 (Ephrin type-A receptor 7): > 50 µM | ED50 [1]: 1.99 µM | ED50 [2]: 0.11 µM | ED50 [3]: 0.09 µM | ED50 [4]: 0.677 µM | ED50 [5]: 1910 µM | ED50 [6]: 0.051 µM | ED50 [7]: 1.52 µM | ED50 [8]: 16.2 µM | ED50 [9]: 0.897 µM | ED50 [10]: 0.0794 µM | ED50 [11]: 0.254 µM | ED50 [12]: 113 µM | ED50 [13]: 0.107 µM | ED50 [14]: 0.0192 µM | ED50 [15]: 0.0881 µM | ED50 [16]: 12.4 µM | ED50 (Homo sapiens): 6.81 µM | ED50 [17]: 0.573 µM | ED50 [18]: 12.7 µM | ED50 [19]: 0.01 µM | ED50 [20]: 3.34 µM | ED50 [21]: 8.27 µM | ED50 [22]: 0.202 µM | ED50 [23]: 1.77 µM | ED50 [24]: 0.053 µM | ED50 [25]: 0.492 µM | ED50 [26]: 203 µM | ED50 [27]: 14.9 µM | ED50 [28]: 18.3 µM | ED50 [29]: 36.6 µM | ED50 [30]: 0.0202 µM | ED50 [31]: 5.79 µM | ED50 [32]: 6.99 µM | ED50 [33]: 8.41 µM | ED50 [34]: 3 µM | ED50 [35]: 9770 µM | ED50 [36]: 0.018 µM | ED50 [37]: 0.00986 µM | ED50 [38]: 0.102 µM | ED50 [39]: 0.0871 µM | ED50 [40]: 0.176 µM | ED50 [41]: 0.0706 µM | ED50 [42]: 0.0567 µM | ED50 [43]: 0.68 µM
